US12421276B2 (priority 2016, dated 2025)
Where a SMILES comes first, the peptide text is derived from it. [ ]: non-standard residue; d: D form. The star is where a group is joined. ξ: configuration not given here. pY = N[CH](Cc1ccc(OP(=O)(O)O)cc1)C(=O)O; ξpY = NC(Cc1ccc(OP(=O)(O)O)cc1)C(=O)O; Ile(3ξ) = CCC(C)[C@H](N)C(=O)O; Hexanoyl = CCCCCC(=O)*; Ahx = NCCCCCC(=O)O

Legend:
Caco-2 cells = test: Caco-2 permeability study with or without P-gp inhibitor GF120918; conditions: for Caco-2 Cells Permeability Recovery Rate: 1 hr, pH 7.4
Method: Buffer=HBSS, pH 7.4 with 5 mM HEPES
Caco-2 cell plates were obtained commercially and were maintained for 21 days at 37° C. with 5% CO2. Cells were washed with Hank's Balanced Salt Solution (HBSS) 30 min before starting the experiment. Test compound solutions were prepared by diluting from DMSO stock into HBSS buffer in the presence or absence of 10 μM of P-gp inhibitor GF120918. The final DMSO concentration is 0.2%. Prior to each experiment, cell monolayer integrity was verified by transendothelial electrical resistance (TEER). Transport experiment was initiated by adding test compounds to the apical (75 μL) side. Transport plates were incubated at 37° C. in a humidified incubator with 5% CO2. Samples were taken from the donor and acceptor compartments after 1 hr and analyzed by liquid chromatography with tandem mass spectrometry (LC/MS/MS).
Apparent permeability (Papp) values were calculated using the following equation: Papp=(dQ/dt)/A/C0
where dQ/dt is the initial rate of amount of test compound transported across cell monolayer, A is the surface area of the filter membrane, and C0 is the initial concentration of the test compound. C0 is calculated for each condition using a 4-point calibration curve.
Absorption quotient between the two assay conditions was calculated by the following equation:
Absorption quotient (AQ)=(Papp, A-B with inhibitor−Papp, A-B without inhibitor)/Papp, A-B with inhibitor where Papp, A-B with inhibitor and Papp, A-B without inhibitor represent the apparent permeability of test compound from the apical to basal side of the cellular monolayer in the presence and absence of 10 μM P-gp inhibitor GF120918, respectively.
All samples were analyzed on LC/MS/MS using an AB Sciex API 4000 instrument, coupled to a Shimadzu LC-20AD LC Pump system. Analytical samples were separated using a Waters Atlantis T3 dC18 reverse phase HPLC column (10 mm×2.1 mm) at a flow rate of 0.5 mL/min. The mobile phase consisted of 0.1% formic acid in water (solvent A) and 0.1% formic acid in acetonitrile (solvent B).

[1] = Metabolic stability in simulated intestinal fluid (SIF), pH 6.8, with or without pancreatin; format: in vitro ADME; conditions: 5 μM, 37° C.
Method: (§1) Metabolic Stability in SIF and SGF (Simulated Intestinal and Gastric Fluid)
Buffer 3=SIF without enzyme
Buffer 4=SIF with 1% pancreatin
(§2) SIF was prepared freshly with 8.7 mM NaOH, 28.65 mM NaH2PO4, 105.85 mM NaCl, with a final pH of 6.8. SGF was prepared freshly with 34.2 mM NaCl, with a final pH of 1.2. Enzymes such as pepsin or pancreatin were added to some buffers. Human and rat plasma (K2 EDTA) were purchased from BioreclamationIVT.
(§3) Compounds were dissolved as 1.5 mM DMSO stocks. Compounds were transferred to SIF, SGF, or plasma at 5 μM on a 96-well deep well plate. After mixing, samples were transferred to several 96-well plates (25 μL/well), and incubated at 37° C. The extent of metabolism was calculated as the disappearance of the test compound, compared to the 0-min control reaction incubations. Candesartan Cilexetil and omeprazole were included as positive controls for SIF and SGF, respectively, to verify assay performance.
(§4) At each of the time points, 150 μL of quench solution (100% acetonitrile with 0.1% formic acid) with internal standard (bucetin for positive ESI mode and warfarin for negative ESI mode) was transferred to each well. Plates were sealed and centrifuged at 4° C. for 15 minutes at 4000 rpm. The supernatant was transferred to fresh plates for LC/MS/MS analysis.
(§5) Elution conditions are detailed in the table below.
(§6) Initial rates of the clearance of test compounds were calculated using linear regression of semi-log plot of % remaining of compounds versus time. The elimination rate constant (equals to −slope) of the linear regression was then used to determine t½ values.

[2] = format: in vivo, rat; conditions: Rat, PO, 10 mg/kg equiv., n = 4
Method: • 1. Eight (8) male JVC SD rats (purchased from Charles River Lab) were monitored daily for body condition and health status during the 3-5 days acclimation period. The rats were randomly assigned into […] (n=4). • 2. […] The dosed rats were individually placed into a metabolic cage, and have access to food and water at all times. The urine from each rat was collected daily from the metabolic cages, and kept in dry ice. • 4. At predose (0 min), 5 min, 15 min, 30 min, 1 hr, 2 hr, 8 hr, and 24 hr post dosing, approximately 200 ul blood samples were collected from each rat and transferred to EDTA tubes. • 5. The blood samples in EDTA vials were centrifuged at 4° C. and 6,000 rpm for 10 minutes to generate ˜100 μl of plasma per sample. Blood samples were processed as quickly as possible and remain no longer than 2 min at room temperature and no longer than 15 minutes at 4° C. prior to processing. • 6. All samples were transferred for bioanalytic assay using LCMS

[3] = Metabolic stability in simulated gastric fluid (SGF), pH 1.2, with or without pepsin; format: in vitro ADME; conditions: 5 μM, 37° C.
Method: as §1
Buffer 1=SGF without enzyme
Buffer 2=SGF with 0.32% pepsin
as §2, §3, §4, §5, §6

[4] = Plasma stability study, rat plasma; format: in vitro ADME; conditions: Rat plasma, 1 μM, 37° C.
Method: (§7) Human and rat plasma (K2 EDTA) were obtained from Bioreclamation.
(§8) Compounds were dissolved as 0.3 mM DMSO stocks. Compounds were transferred to the plasma at 1 μM on a 96-well deep well plate. After mixing, samples were transferred to several 96-well plates (25 μL/well), and incubated at 37° C. The extent of metabolism was calculated as the disappearance of the test compound, compared to the 0-min control reaction incubations. Propantheline was included as a positive control to verify assay performance.
as §4, with “(50% acetonitrile, 50% methanol” for “(100% acetonitrile”, “0.05%” for “0.1%”
as §5, §6

[5] = Plasma stability study, human plasma; format: in vitro ADME; conditions: Human plasma, 1 μM, 37° C.
Method: as §7, §8
as §4, with “(50% acetonitrile, 50% methanol” for “(100% acetonitrile”, “0.05%” for “0.1%”
as §5, §6

[6] = analyte: Parent (BASE STRUCTURE)

CCCCCC(=O)NC(Cc1ccc(OP(=O)(O)O)cc1)C(=O)N[C@H](C(=O)NCCCCCC(N)=O)C(C)CC.N.N (some centres unmarked) [Compound A29] (Hexanoyl-[ξpY]-[Ile(3ξ)]-[Ahx]-NH2)
Abs. Quotient (Caco-2 cells; (Papp A-B with inhibitor − without inhibitor)/Papp A-B with inhibitor): 0.83 | Caco-2 Cells Permeability Recovery Rate (Caco-2 cells; +GF120918 (10 μM), 10 μM compound): 76% | Caco-2 Cells Permeability Recovery Rate (Caco-2 cells; −GF120918, 10 μM compound): 86% | SIF Stability (pH 6.8) Half-Life (min) ([1]; +Pancreatin (1%)): Neg. | SIF Stability (pH 6.8) 0 min ([1]; +Pancreatin (1%)): 100% | SIF Stability (pH 6.8) 60 min ([1]; +Pancreatin (1%)): 94% | SIF Stability (pH 6.8) 120 min ([1]; +Pancreatin (1%)): 98% | SIF Stability (pH 6.8) 240 min ([1]; +Pancreatin (1%)): 104% | SIF Stability (pH 6.8) Half-Life (min) ([1]; −Pancreatin): Neg. | SIF Stability (pH 6.8) 0 min ([1]; −Pancreatin): 100% | SIF Stability (pH 6.8) 60 min ([1]; −Pancreatin): 96% | SIF Stability (pH 6.8) 120 min ([1]; −Pancreatin): 97% | SIF Stability (pH 6.8) 240 min ([1]; −Pancreatin): 103% | AUC0-24 [2, 6]: 35.9 ± 27.6 ng·h/mL | AUC0-inf [2, 6]: 48.6 ± 26.5 ng·h/mL | Cmax [2, 6]: 39.7 ± 74.2 ng/mL | Tmax (h) [2, 6]: 2.1 ± 4^ h | half-life [2, 6]: 15.7 ± 14.3 h | Tmax ([2]; analyte: Prodrug): 0 h | SGF Stability (pH 1.2) Half-Life (min) ([3]; +Pepsin (0.32%)): 225.0 min | SGF Stability (pH 1.2) 0 min ([3]; +Pepsin (0.32%)): 100% | SGF Stability (pH 1.2) 60 min ([3]; +Pepsin (0.32%)): 86% | SGF Stability (pH 1.2) 120 min ([3]; +Pepsin (0.32%)): 63% | SGF Stability (pH 1.2) 240 min ([3]; +Pepsin (0.32%)): 49% | SGF Stability (pH 1.2) Half-Life (min) ([3]; −Pepsin): Neg. | SGF Stability (pH 1.2) 0 min ([3]; −Pepsin): 100% | SGF Stability (pH 1.2) 60 min ([3]; −Pepsin): 117% | SGF Stability (pH 1.2) 120 min ([3]; −Pepsin): 129% | SGF Stability (pH 1.2) 240 min ([3]; −Pepsin): 123%

CCCCCC(=O)NC(Cc1ccc(OP(=O)([O-])O)cc1)C(=O)NC(C(=O)NCCCCCC(N)=O)C(C)CC.[Na+] (centres unmarked) [Compound A30] (Hexanoyl-[pY]-Ile-[Ahx]-NH2; configuration not given here)
SIF Stability (pH 6.8) Half-Life (min) ([1]; +Pancreatin (1%)): 156.6 min | SIF Stability (pH 6.8) 0 min ([1]; +Pancreatin (1%)): 100% | SIF Stability (pH 6.8) 60 min ([1]; +Pancreatin (1%)): 70% | SIF Stability (pH 6.8) 120 min ([1]; +Pancreatin (1%)): 51% | SIF Stability (pH 6.8) 240 min ([1]; +Pancreatin (1%)): 34% | SIF Stability (pH 6.8) Half-Life (min) ([1]; −Pancreatin): 68.4 min | SIF Stability (pH 6.8) 0 min ([1]; −Pancreatin): 100% | SIF Stability (pH 6.8) 60 min ([1]; −Pancreatin): 43% | SIF Stability (pH 6.8) 120 min ([1]; −Pancreatin): 22% | SIF Stability (pH 6.8) 240 min ([1]; −Pancreatin): 8% | Plasma Stability Half-Life [4]: 21.79 h | Plasma Stability (% Parent Remaining) 0 min ([4]; 0 min): 100% | Plasma Stability (% Parent Remaining) 60 min ([4]; 60 min): 88% | Plasma Stability (% Parent Remaining) 120 min ([4]; 120 min): 87% | Plasma Stability (% Parent Remaining) 240 min ([4]; 240 min): 86% | Plasma Stability Half-Life [5]: 1.4 h | Plasma Stability (% Parent Remaining) 0 min ([5]; 0 min): 100% | Plasma Stability (% Parent Remaining) 60 min ([5]; 60 min): 36% | Plasma Stability (% Parent Remaining) 120 min ([5]; 120 min): 20% | Plasma Stability (% Parent Remaining) 240 min ([5]; 240 min): 12% | SGF Stability (pH 1.2) Half-Life (min) ([3]; +Pepsin (0.32%)): 248.3 min | SGF Stability (pH 1.2) 0 min ([3]; +Pepsin (0.32%)): 100% | SGF Stability (pH 1.2) 60 min ([3]; +Pepsin (0.32%)): 95% | SGF Stability (pH 1.2) 120 min ([3]; +Pepsin (0.32%)): 64% | SGF Stability (pH 1.2) 240 min ([3]; +Pepsin (0.32%)): 54% | SGF Stability (pH 1.2) Half-Life (min) ([3]; −Pepsin): 1713.6 min | SGF Stability (pH 1.2) 0 min ([3]; −Pepsin): 100% | SGF Stability (pH 1.2) 60 min ([3]; −Pepsin): 95% | SGF Stability (pH 1.2) 120 min ([3]; −Pepsin): 98% | SGF Stability (pH 1.2) 240 min ([3]; −Pepsin): 89%
